Measurements published in patent US8530513B1, “Pharmaceutical uses of diterpene excavatolide B from a coral or an analogue thereof” (National Sun Yat-Sen University, priority 2012, dated 2013).

Columns and labels:
[1] = test system: abdominal skins of female C57BL/6 mice; test: TPA-induced edema, H&E-stained skin sections; format: in vivo, mouse; conditions: topical 1 mg/site for 6 h after TPA
Protocol: (§1) Mice were treated or not treated topically on their shaven abdomens with acetone (vehicle only) or TPA (10 nmol in 200 μl acetone/site) for 6 h or treated first with TPA for 10 min, then with the indicated concentrations of BrD1 for 6 h. Mice were killed by cervical dislocation. Abdominal skin tissues were collected, fixed with formalin buffer and embedded in paraffin. Tissue sections ([…]) were cut and laid onto silanized glass slides and deparaffinized three times with xylene for 5 min each prior to rehydration using a graded alcohol bath. For hematoxyline and eosin staining, the sections were stained with hematoxyline and eosin staining. For immunohistochemical staining, the deparaffinized sections were boiled in 10 mM citrate buffer (pH 6.0) for 10 min for antigen retrieval and rinsed with PBS containing 0.05% Tween-20 buffer for 5 min. The sections were treated with 3% hydrogen peroxide in methanol for 15 min to decrease non-specific binding. […] Subsequently, peroxidase-binding sites were determined by staining with 3,3′-diaminobenzidine tetrahydrochloride (Dako). […]
Since increased vascular permeability is one of factors contributing to the formation of edema, we next evaluated whether BrD1 inhibited formation of edema in TPA-induced inflammation by examining H&E-stained longitudinal sections of skin samples.

iNOS = test: TPA-induced iNOS expression in mouse skin, immunohistochemical staining; format: in vivo; conditions: topical for 6 h after TPA, anti-iNOS immunostaining
Protocol: as §1, with “binding. They were subsequently washed with blocking solution (PBS containing 1% BSA) for 30 min and then PBST twice for 5 min. All slides were incubated first with 2% goat serum in blocking solution for 30 min, then with a 1:200 dilution of polyclonal iNOS antibody (eBioscience, San Diego, Calif.) at room temperature for 1 h.” for “binding.”

IL-6 = test: LPS-induced IL-6 expression in mouse bone marrow-derived dendritic cells, ELISA; format: cell-based; conditions: for IL-6 expression in LPS-stimulated dendritic cells: LPS 100 ng/ml plus BrD1 at different concentrations, 24 h
From the text: For mouse bone marrow-derived DCs (BMDCs), five to six-week-old female C57BL/6JNarl mice were purchased from the National Laboratory Animal Center, Taiwan and kept under SPF conditions. BMDCs were generated from bone marrow cells of C57BL/6 mice as described previously (Yin S Y, Wang W H, Wang B X, Aravindaram K, Hwang P I, Wu H M, Yang N S. BMC genomics 2010, 11:612). In brief, bone marrow was isolated from femurs and tibiae which were then flushed with RPMI-1640 medium using a syringe with a 0.45-mm needle on Day 0. Red blood cells in suspension were lysed for […] with ACK lysing buffer (150 mM NH4Cl, 1.0 mM KHCO3, 0.1 mM EDTA). Bone marrow cells were suspended at a density of 1×10^7 cells/30 ml in RPMI-1640 containing 10% FBS, 2 mM L-glutamine, 1% of nonessential amino acids, 100 U/mL penicillin and 100 μg/mL streptomycin supplemented with 20 ng/mL of mGM-CSF in 15-cm dishes at 37° C. with 5% CO2. On day 2, two-thirds of the medium was removed and 30 mL fresh medium with mGM-CSF was added to the cells. On day 5, culture plates were gently swirled and the floating and loosely adherent cells were discarded. Aliquots of 75% culture media were replenished with 20 ng/mL mGM-CSF and 20 ng/mL mIL-4. On day 7, mouse BMDCs (95% pure CD11b and MHC II) were harvested and incubated in RPMI 1640 medium containing 1 mM sodium pyruvate, 0.1 mM nonessential amino acids, 100 U/ml penicillin, 100 μg/ml streptomycin, and supplemented with 10% fetal bovine serum (Invitrogen, Carlsbad, Calif.) for 24 h at 37° C. with or without test chemicals in the presence or absence of LPS (100 ng/ml).
BMDCs were treated with or without test chemicals in the presence or absence of LPS (100 ng/ml) for 24 h at 37° C. Aliquots of supernatants from DC cultures were assayed for IL-6 and TNF-α using commercial ELISA kits (R&D Systems, Minneapolis, Minn.) following the manufacturer's recommendations.
Several studies have reported that the secretion of specific cytokines, including IL-1β, TNF-α and IL-6 by keratinocytes and various immune cells is involved in cutaneous inflammation (Nestle F O, Di Meglio P, Qin J Z, Nickoloff B J. Nature reviews Immunology 2009, 9:679-691; De Vry C G, Valdez M, Lazarov M, Muhr E, Buelow R, Fong T, Iyer S. J Invest Dermatol 2005, 125:473-481; Cumberbatch M, Dearman R J, Kimber I. Immunology 1996, 87:513-518). In order to investigate the anti-inflammatory effect of BrD1 on cytokine expression, mouse bone marrow-derived dendritic cells were used to evaluate the inhibitory effect of BrD1 on LPS-induced expressions of TNF-α and IL-6. In our time-course study for expression of TNF-α and IL-6, after LPS stimulation, a high expression of TNF-α and IL-6 was maintained at 24 h (FIG. 6A). We therefore chose 24 h as the time point at which to assess the expression of TNF-α and IL-6.

CCCC(=O)O[C@H]1C/C(C)=C\[C@@H]2OC(=O)[C@]3(C)O[C@]23[C@@H](OC(C)=O)[C@H]2[C@@H](C)[C@@H](O)C[C@H](OC(C)=O)[C@]2(C)[C@H]1OC(C)=O [BrD1, excavatolide B]
skin thickness (TPA-induced edema) [1]: substantially decreased the skin thickness | skin thickness (TPA-induced edema) ([1]; listed as excavatolide B): substantially decreases the skin thickness | TPA-induced iNOS expression (iNOS): markedly reduced the TPA-induced iNOS expression in the epidermal and dermal layers | TPA-induced iNOS expression (iNOS; listed as excavatolide B): markedly reduces the TPA-induced iNOS expression in the epidermal and dermal layers | inhibition of LPS-induced IL-6 expression (structure-activity relationship) (IL-6; DCs co-treated with LPS and BrDs at 20 μM): significantly inhibited the expression of cytokine IL-6 | IL-6 expression in LPS-stimulated dendritic cells (IL-6): strongly inhibited IL-6 expression | IL-6 expression in LPS-stimulated dendritic cells (IL-6; listed as Excavatolide B): strongly inhibits IL-6 expression
